{"source": "patent US20150025031A1", "about": "“METABOLIC DOWNREGULATION FOR CELL SURVIVAL” (WAKE FOREST UNIVERSITY HEALTH SCIENCES, priority 2012, published 2015)", "key": {"[1]": {"system": "C2C12 cells, murine myoblasts", "assay": "MTS metabolic activity of C2C12 cells under hypoxia with adenosine (Example 1)", "assay_type": "cell-based", "protocol": "Another group receiving daily doses of adenosine ([…], achieved by serial dilution) was incubated for up to 7 days under hypoxia and then placed back into normoxic conditions without additional supply of adenosine. Adenosine was refreshed by the daily exchange of media in which adenosine was completely dissolved. Media to be used under hypoxia was placed in the hypoxic chamber 24 hr prior to use for deoxygenation down to 2% O2. The metabolic activity of viable cells at each pre-determined time point was assessed using an MTS assay, which measures mitochondrial activity of cells."}, "[2]": {"biological_target": "T1, adenosine deaminase (ADA) (Homo sapiens, UniProt P00813)", "T1 construct": "purchased Sigma", "T1 sequence (P00813 1-363)": "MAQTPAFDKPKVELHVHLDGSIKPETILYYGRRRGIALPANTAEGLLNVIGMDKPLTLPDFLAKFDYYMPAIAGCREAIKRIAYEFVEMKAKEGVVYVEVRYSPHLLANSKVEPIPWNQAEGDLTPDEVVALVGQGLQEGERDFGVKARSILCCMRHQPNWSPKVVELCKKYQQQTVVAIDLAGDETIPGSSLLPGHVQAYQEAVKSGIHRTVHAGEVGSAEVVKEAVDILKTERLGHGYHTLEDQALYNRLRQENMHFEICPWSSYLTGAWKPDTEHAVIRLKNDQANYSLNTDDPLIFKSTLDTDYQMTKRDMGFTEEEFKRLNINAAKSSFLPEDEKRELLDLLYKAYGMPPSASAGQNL", "assay": "Cell viability with adenosine derivatives in presence or absence of ADA, normoxic conditions (Example 2)", "assay_type": "cell-based", "details": "presence of ADA", "protocol": "Three known ADA inhibitors were examined to evaluate the efficacies of adenosine derivatives: cladribine, pentostatin, and fludarabine phosphate. They have similar structures and molecular weights compared to adenosine, but different functional groups in the structures. Metabolic rate of cells were indirectly analyzed by cell viability in the presence or absence of adenosine derivatives and ADA in various doses. Cell viability with the drugs was evaluated under normoxic conditions.\nAdenosine (Sigma-Aldrich), cladribine (Sigma, 2-Chloro-2′-deoxyadenosine), pentostatin (Tocris biosciences), and fludarabine phosphate (LGM Pharma) were used throughout this study."}, "C2C12 mouse myoblasts": {"system": "C2C12 mouse myoblasts", "details": "5 mM"}}, "note": "Read-outs that look alike come from different tables or passages of the source.", "data": [{"smiles": "Nc1ncnc2c1ncn2[C@@H]1O[C@H](CO)[C@@H](O)[C@H]1O", "note": "[adenosine]", "values": [{"measurement": "restoration of normal proliferation rate after long-term exposure", "setting": "[1]; 22 days under adenosine, various doses", "value": "still demonstrated the ability to restore its normal proliferation rate"}, {"measurement": "cellular (metabolic) activity under hypoxic conditions", "setting": "[1]; C2C12, 0.1% O2, daily adenosine up to 7 days, MTS", "value": "maintained a steady state of cellular activity"}, {"measurement": "minimum effective concentration of adenosine", "setting": "[1]; C2C12, 0.1% O2 hypoxia, MTS metabolic activity", "value": "about 1 mM"}, {"measurement": "resumption of normal metabolic activity after adenosine removal", "setting": "[1]; adenosine removed at day 7, back to normoxia", "value": "resumed their normal metabolic activity two days after adenosine was removed at day 7"}, {"measurement": "conversion by ADA / stability towards adenosine degrading enzymes", "setting": "[2]", "value": "lost its activity in presence of ADA"}, {"measurement": "proliferation after drug and hypoxia removed", "setting": "C2C12 mouse myoblasts; treated with ADA", "value": "failed to revive after the hypoxia and drug was removed"}, {"measurement": "proliferation after drug and hypoxia removed", "setting": "C2C12 mouse myoblasts; used alone (no ADA)", "value": "started to regain their normal proliferation"}, {"measurement": "cell population under hypoxic condition", "setting": "C2C12 mouse myoblasts; used alone (no ADA), 7 days hypoxia", "value": "maintain cell population significantly lower than the no treatment control"}]}]}
